According to paper PMC12582016, “Cupin‐Type Dimethylsulfoniopropionate Lyase from Pelagibacter ubique (DddK Pu ) Catalyzes Aza‐Michael Addition of Primary and Secondary Amines to Acrylic Acid” (Angewandte Chemie (International Ed. in English), 2025):

What was measured:
[1] = target: T1, DddK Pu (dimethylsulfoniopropionate (DMSP) lyase from Pelagibacter ubique HTCC1062) (Candidatus Pelagibacter communis, UniProt Q4FNM4); experiment: end-point assay of acrylate consumption (aza-Michael addition); assay type: biochemical; conditions: co-substrate sodium acrylate 100 mM; pyrrolidine 100 mM; 50 mM triethanolamine pH 8.0, 25 °C; promiscuous activity
T1 construct: gene SAR11_0394; His-tagged wild type, tag kept, recombinant in E. coli, purified; metals as isolated mainly Zn, Fe, Ni
T1 sequence (Q4FNM4 1-130): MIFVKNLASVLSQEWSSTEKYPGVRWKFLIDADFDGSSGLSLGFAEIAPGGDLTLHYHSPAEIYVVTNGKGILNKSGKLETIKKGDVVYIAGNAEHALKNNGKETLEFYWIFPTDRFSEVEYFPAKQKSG

[2] = target: T1, DddK Pu (dimethylsulfoniopropionate (DMSP) lyase from Pelagibacter ubique HTCC1062); experiment: HPLC end-point assay of acrylate formation; assay type: biochemical; conditions: 50 mM triethanolamine pH 8.0, 25 °C; enzyme as isolated (mainly Zn, Fe, Ni)

SMILES | end-point assay of acrylate consumption (aza-Michael addition) [1] | HPLC end-point assay of acrylate formation [2]
C1CCNC1 [6c, pyrrolidine] | Pyrrolidine (6c) was by far the most active secondary amine | 
C[S+](C)CCC(=O)[O-] [compound 1, DMSP] |  | The specific activity of DddK Pu was determined by the endpoint method
